Results published in US12180187B2, “1-phenyl-5-azinylpyrazolyl-3-oxyalkyl acids and their use for controlling unwanted plant growth” (BAYER AKTIENGESELLSCHAFT, priority 2019, dated 2024).

What was measured:
[1] = tested on: MATIN; experiment: Pre-emergence action at 320 g/ha against MATIN; format: in vivo, Tripleurospermum inodorum (Matricaria inodora); conditions: visual scoring after about 3 weeks vs untreated controls; for pest or weed control at 320 g/ha: Tripleurospermum inodorum, 504 h
Method in brief: (§1)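 Visual % scoring at about 3 weeks post-treatment against untreated pots (0% = like control, 100% = dead), greenhouse-grown. Compounds applied at 320 g/ha as aqueous WP/EC suspension or emulsion plus 0.5% additive, 600 l/ha water, onto covering soil of freshly sown pots before emergence.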

[2] = tested on: POLCO; experiment: Post-emergence action at 320 g/ha against POLCO; format: in vivo, Fallopia convolvulus (Polygonum convolvulus); conditions: visual rating about 3 weeks after treatment vs untreated controls; for pest or weed control at 320 g/ha: Fallopia convolvulus, 504 h
Method in brief: (§2)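 Sow in sandy loam → greenhouse growth 2–3 wk → spray at one-leaf stage (WP/EC, aqueous, +0.5% additive, 600 l/ha) → hold ~3 wk under optimum conditions → visual rating, 0–100% relative to untreated.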

[3] = tested on: ECHCG; experiment: Post-emergence action at 320 g/ha against ECHCG; format: in vivo, Echinochloa crus-galli; conditions: dosage 320 g/ha, visual rating about 3 weeks after treatment vs untreated controls (100% = plants died)
Method in brief: as §2

[4] = tested on: DIGSA; experiment: Post-emergence action at 320 g/ha against DIGSA; format: in vivo, Digitaria sanguinalis; conditions: dosage 320 g/ha, visual rating about 3 weeks after treatment vs untreated controls (100% = plants died); for pest or weed control at 320 g/ha: Digitaria sanguinalis, 504 h
Method in brief: as §2

[5] = tested on: ECHGC; experiment: Pre-emergence action at 320 g/ha against ECHGC; format: in vivo, Echinochloa crus-galli; conditions: visual scoring after about 3 weeks vs untreated controls
Method in brief: as §1

[6] = tested on: VERPE; experiment: Pre-emergence action at 320 g/ha against VERPE; format: in vivo, Veronica persica; conditions: visual scoring after about 3 weeks vs untreated controls; for pest or weed control at 320 g/ha: Veronica persica, 504 h
Method in brief: as §1

[7] = tested on: PHBPU; experiment: Post-emergence action at 320 g/ha against PHBPU; format: in vivo; conditions: visual rating about 3 weeks after treatment vs untreated controls
Method in brief: as §2

[8] = tested on: VIOTR; experiment: Pre-emergence action at 320 g/ha against VIOTR; format: in vivo, Viola tricolor; conditions: dosage 320 g/ha; for pest or weed control at 320 g/ha: Viola tricolor, 504 h
Method in brief: as §1

[9] = tested on: AMARE; experiment: Post-emergence action against AMARE, 1.28 kg/ha; format: in vivo, Amaranthus retroflexus; conditions: dosage 1280 g/ha, visual rating about 3 weeks after treatment vs untreated controls (100% = plants died)
Method in brief: (§3)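 Percent activity was scored visually ~3 wk post-spray relative to untreated plants. Treatment was post-emergence at the one-leaf stage using WP/EC in water with 0.5% additive (600 L/ha).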

[10] = tested on: SETVI; experiment: Post-emergence action against SETVI, 1.28 kg/ha; format: in vivo, Setaria viridis; conditions: dosage 1280 g/ha, visual rating about 3 weeks after treatment vs untreated controls
Method in brief: as §3

[11] = tested on: AMARE; experiment: Post-emergence action at 320 g/ha against AMARE; format: in vivo, Amaranthus retroflexus; conditions: visual rating about 3 weeks after treatment vs untreated controls
Method in brief: as §2

[12] = tested on: LOLRI; experiment: Post-emergence action against LOLRI, 1.28 kg/ha; format: in vivo, Lolium rigidum; conditions: dosage 1280 g/ha, visual rating about 3 weeks after treatment vs untreated controls
Method in brief: as §3

[13] = tested on: STEME; experiment: Post-emergence action against STEME, 1.28 kg/ha; format: in vivo, Stellaria media; conditions: dosage 1280 g/ha, visual rating about 3 weeks after treatment vs untreated controls (100% = plants died)
Method in brief: as §3

[14] = tested on: ECHCG; experiment: Post-emergence action against ECHCG, 1.28 kg/ha; format: in vivo, Echinochloa crus-galli; conditions: dosage 1280 g/ha, visual rating about 3 weeks after treatment vs untreated controls; for pest or weed control at 1280 g/ha: Echinochloa crus-galli, 504 h
Method in brief: as §3

[15] = tested on: ABUTH; experiment: Post-emergence action at 320 g/ha against ABUTH; format: in vivo, Abutilon theophrasti; conditions: visual rating about 3 weeks after treatment vs untreated controls
Method in brief: as §2

[16] = tested on: ABUTH; experiment: Pre-emergence action against ABUTH, 1280 g/ha; format: in vivo, Abutilon theophrasti; conditions: scored visually after about 3 weeks vs untreated controls (100% = plants have died)
Method in brief: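 Percent herbicidal effect, judged by eye relative to untreated pots around 3 weeks after soil-surface treatment. Application: formulated compound in water, 600 L/ha, 0.5% additive, on soil over sown seeds; greenhouse.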

Structure (SMILES)	Pre-emergence action against MATIN in % [1] [%]	Post-emergence action against POLCO in % [2] [%]	Post-emergence action at 320 g/ha against ECHCG in % [3] [%]	Post-emergence action at 320 g/ha against DIGSA in % [4] [%]	Pre-emergence action against ECHGC in % [5] [%]	Pre-emergence action against VERPE in % [6] [%]	Post-emergence action against PHBPU in % [7] [%]	Pre-emergence action against VIOTR in % [8] [%]	Post-emergence action against AMARE [9] [%]	Post-emergence action against SETVI [10] [%]	Post-emergence action against AMARE in % [11] [%]	Post-emergence action against LOLRI [12] [%]	Post-emergence action against STEME [13] [%]	Post-emergence action against ECHCG [14] [%]	Post-emergence action against ABUTH in % [15] [%]	Pre-emergence action against ABUTH [16] [%]	other results
CN(C)S(=O)(=O)NC(=O)COc1nn(-c2ccccc2F)c(-c2ccc(F)nc2)c1Br [Example X-005]	100	80	80	90	90	100	80	100	100	90	80	100	90	100	–	–	–
COC(=O)[C@@H](C)Oc1nn(-c2ccccc2F)c(-c2cncnc2)c1Br [VI-011, Methyl (2R)-2-{[4-bromo-1-(2-fluorophenyl)-5-(pyrimidin-5-yl)-1H-pyrazol-3-yl]oxy}propanoate]	–	–	–	–	80	–	–	–	–	100	–	100	100	–	90	90	pest or weed control at 320 g/ha [1]: 90%; pest or weed control at 320 g/ha [2]: 80%; pest or weed control at 320 g/ha [4]: 90%; pest or weed control at 320 g/ha [6]: 90%; pest or weed control at 320 g/ha [8]: 100%; pest or weed control at 320 g/ha ([11]; Amaranthus retroflexus, 504 h): 80%; pest or weed control at 1280 g/ha [14]: 100%
C[C@@H](Oc1nn(-c2ccccc2F)c(-c2cncnc2)c1Br)C(=O)O [VI-012]	90	–	–	–	80	100	80	100	90	90	80	90	90	100	80	90	–
COC(=O)[C@@H](C)Oc1nn(-c2ccccc2)c(-c2cncnc2)c1Br [VI-013]	90	–	–	90	90	–	80	100	90	90	90	90	100	100	80	90	–
COC(=O)COc1nn(-c2ccc(F)cc2)c(-c2ccc(F)nc2)c1Br [VII-002]	100	80	90	–	90	100	90	–	–	90	–	–	90	90	80	–	–
COC(=O)[C@@H](C)Oc1nn(-c2ccccc2)c(-c2cccnc2)c1Br [VII-008]	100	–	90	80	80	100	80	100	90	90	90	100	100	100	90	90	–
COC(=O)C(C)Oc1nn(-c2ccccc2)c(-c2ccc(F)nc2)c1Br (stereo not shown) [VII-014]	–	80	80	80	80	100	–	100	90	–	90	90	90	90	–	–	–
COC(=O)C(C)Oc1nn(-c2ccccc2)c(-c2ccc(F)nc2)c1Br (stereo not shown) [VII-026]	90	90	–	90	–	80	–	100	90	–	90	–	100	90	80	90	–
COC(=O)COc1nn(-c2ccc(F)cc2)c(-c2cccnc2)c1Br [VII-028]	80	–	80	–	80	100	90	100	100	90	80	90	100	90	80	–	–
CCC(Oc1nn(-c2ccccc2F)c(-c2ccc(F)nc2)c1Br)C(=O)OC (stereo not shown) [VII-029]	90	80	80	–	–	100	–	100	90	–	–	100	100	100	80	90	–
CCOC(=O)COc1nn(-c2ccccc2F)c(-c2ccnc(F)c2)c1Br [VIII-003, Ethyl {[4-bromo-1-(2-fluorophenyl)-5-(2-fluoropyridin-4-yl)-1H-pyrazol-3-yl]oxy}acetate]	–	–	80	–	90	–	80	–	90	100	–	100	100	–	–	–	pest or weed control at 320 g/ha [1]: 90%; pest or weed control at 320 g/ha [2]: 80%; pest or weed control at 320 g/ha [4]: 80%; pest or weed control at 320 g/ha [6]: 90%; pest or weed control at 320 g/ha [8]: 100%; pest or weed control at 1280 g/ha [14]: 100%
O=C(O)COc1nn(-c2ccccc2F)c(-c2ccnc(F)c2)c1Br [VIII-004]	90	80	90	90	90	100	90	90	90	100	90	100	100	90	–	–	–
